Reference: US11407740B2 (priority 2018, dated 2022)
Converted amounts (≈) assume the structure as drawn.

What follows are compounds tested on E. coli (assay: Bacterial susceptibility testing, MIC by broth microdilution (CLSI)). Conditions: Escherichia coli, read-out: E. coli MIC, broth microdilution, 35° C., 18-24 h.

| Compound | MIC [µg/mL] |
| --- | --- |
| N#C[C@@H]1CCN(Cc2ccc(C#Cc3ccc([C@@H](CNCC(F)F)Cc4nc[nH]c(=O)c4O)c(F)c3)cc2)C1 (single isomer, unassigned) [Compound 281] | < 1 |
| COC1CN(Cc2ccc(C#Cc3ccc([C@@H](CNCC(F)F)Cc4nc[nH]c(=O)c4O)c(F)c3)cc2)C1 (single isomer, unassigned) [Compound 282] | < 1 |
| O=c1[nH]cnc(C[C@H](CNCC(F)F)c2ccc(C#Cc3ccc(CN4CCOCC4)cc3)cc2F)c1O (single isomer, unassigned) [Compound 283] | < 1 |
| COC[C@@H](Cc1nc[nH]c(=O)c1O)c1ccc(C#Cc2ccc(CN[C@H]3CCOC3)cc2)cc1 (single isomer, unassigned) [Compound 285] | < 1 |
| COC[C@@H](Cc1nc[nH]c(=O)c1O)c1ccc(C#Cc2ccc(CN[C@H]3CCNC3)cc2)cc1 (single isomer, unassigned) [Compound 287] | 1 to 8 (≈ 2.18 to 17.4 µM) |
| COC[C@@H](Cc1nc[nH]c(=O)c1O)c1ccc(C#Cc2ccc(CN[C@@H]3CCNC3)cc2)cc1 (single isomer, unassigned) [Compound 288] | 1 to 8 (≈ 2.18 to 17.4 µM) |
| CS(=O)(=O)N[C@@H](Cc1nc[nH]c(=O)c1O)c1ccc(C#Cc2ccc(C3(O)CCNCC3)cc2)cc1 (single isomer, unassigned) [Compound 296] | 8 to 32 (≈ 15.7 to 62.9 µM) |
| CS(=O)(=O)N[C@@H](Cc1nc[nH]c(=O)c1O)c1ccc(C#Cc2ccc(CN3CCNC[C@H]3CO)cc2)cc1 (single isomer, unassigned) [Compound 297] | 8 to 32 (≈ 14.9 to 59.5 µM) |
| COC1CN(Cc2ccc(C#Cc3ccc([C@@H](Cc4nc[nH]c(=O)c4O)NS(C)(=O)=O)cc3)cc2)C1 (single isomer, unassigned) [Compound 299] | < 1 |
| CN(C[C@@H](Cc1nc[nH]c(=O)c1O)c1ccc(C#Cc2ccc(CN3CCOCC3)cc2)cc1)C1CC1 (single isomer, unassigned) [Compound 302] | < 1 |
| CC(=O)NC[C@@H](Cc1nc[nH]c(=O)c1O)c1ccc(C#Cc2ccc(CN3CCOCC3)cc2)cc1 (single isomer, unassigned) [Compound 303] | < 1 |
| CS(=O)(=O)NC[C@@H](Cc1nc[nH]c(=O)c1O)c1ccc(C#Cc2ccc(CN3CCOCC3)cc2)cc1 (single isomer, unassigned) [Compound 304] | < 1 |
| CC(C)(O)C(Cc1nc[nH]c(=O)c1O)c1ccc(C#Cc2ccc(CN3CCOCC3)cc2)cc1 (centres unmarked) [Compound 1] | 1 to 8 (≈ 2.11 to 16.9 µM) |
| O=c1[nH]cnc(CC(CO)c2ccc(C#Cc3ccc(CN4CCOCC4)cc3)cc2)c1O (centres unmarked) [Compound 2] | < 1 |
| O=c1[nH]cnc(CC(CNCCF)c2ccc(C#Cc3ccc(CN4CCOCC4)cc3)cc2)c1O (centres unmarked) [Compound 6] | 1 to 8 (≈ 2.04 to 16.3 µM) |
| CC(O)C(Cc1nc[nH]c(=O)c1O)c1ccc(C#Cc2ccc(CN3CCOCC3)cc2)cc1 (centres unmarked) [Compound 12] | 1 to 8 (≈ 2.18 to 17.4 µM) |
| NCC(Cc1nc[nH]c(=O)c1O)c1ccc(C#Cc2ccc(CN3CCOCC3)cc2)cc1 (centres unmarked) [Compound 18] | 1 to 8 (≈ 2.25 to 18 µM) |
| O=C(NCCF)C(Cc1nc[nH]c(=O)c1O)c1ccc(C#Cc2ccc(CN3CCOCC3)cc2)cc1 (centres unmarked) [Compound 19] | < 1 |
| O=C(NCC(F)F)C(Cc1nc[nH]c(=O)c1O)c1ccc(C#Cc2ccc(CN3CCOCC3)cc2)cc1 (centres unmarked) [Compound 22] | < 1 |
| CNC(=O)C(Cc1nc[nH]c(=O)c1O)c1ccc(C#Cc2ccc(CN3CCOCC3)cc2)cc1 (centres unmarked) [Compound 23] | < 1 |

| Compound | MIC [µg/mL] |
| --- | --- |
| COC(=O)C(Cc1nc[nH]c(=O)c1O)c1ccc(C#Cc2ccc(CN3CCOCC3)cc2)cc1 (centres unmarked) [Compound 24] | < 1 |
| O=C(NC1CC(F)(F)C1)C(Cc1nc[nH]c(=O)c1O)c1ccc(C#Cc2ccc(CN3CCOCC3)cc2)cc1 (centres unmarked) [Compound 25] | 1 to 8 (≈ 1.82 to 14.6 µM) |
| CCOC(=O)C(Cc1nc[nH]c(=O)c1O)c1ccc(C#Cc2ccc(CNC3CCOC3)cc2)cc1 (centres unmarked) [Compound 26] | 1 to 8 (≈ 2.05 to 16.4 µM) |
| COC(=O)C(Cc1nc[nH]c(=O)c1O)c1ccc(C#Cc2ccc(CNC3CCOC3)cc2)cc1 (centres unmarked) [Compound 27] | 1 to 8 (≈ 2.11 to 16.9 µM) |
| CC(C#N)NC(=O)C(Cc1nc[nH]c(=O)c1O)c1ccc(C#Cc2ccc(CN3CCOCC3)cc2)cc1 (centres unmarked) [Compound 28] | 1 to 8 (≈ 1.95 to 15.6 µM) |
| O=C(NCC(F)F)C(Cc1nc[nH]c(=O)c1O)c1ccc(C#Cc2ccc(Cn3ccnc3CO)cc2)cc1 (centres unmarked) [Compound 29] | < 1 |
| CC(CO)(Cc1nc[nH]c(=O)c1O)c1ccc(C#Cc2ccc(CN3CCOCC3)cc2)cc1 (centres unmarked) [Compound 31] | < 1 |
| N#CC1CCN(Cc2ccc(C#Cc3ccc([C@@H](CO)Cc4nc[nH]c(=O)c4O)cc3)cc2)C1 (some centres unmarked) [Compound 33] | < 1 |
| N#C[C@H]1CCN(Cc2ccc(C#Cc3ccc(C(CO)Cc4nc[nH]c(=O)c4O)cc3)cc2)C1 (some centres unmarked) [Compound 34] | < 1 |
| N#C[C@@H]1CCN(Cc2ccc(C#Cc3ccc(C(CO)Cc4nc[nH]c(=O)c4O)cc3)cc2)C1 (some centres unmarked) [Compound 36] | < 1 |
| O=c1[nH]cnc(CC(CO)c2ccc(C#Cc3ccc(CNC4C5COCC54)cc3)cc2)c1O (centres unmarked) [Compound 37] | < 1 |
| O=c1[nH]cnc(CC(CO)c2ccc(C#Cc3ccc(CNC4CCS(=O)(=O)C4)cc3)cc2)c1O (centres unmarked) [Compound 38] | < 1 |
| O=c1[nH]cnc(CC(CO)c2ccc(C#Cc3ccc(CN4CC5(CCCO5)C4)cc3)cc2)c1O (centres unmarked) [Compound 42] | < 1 |
| O=c1[nH]cnc(CC(CO)c2ccc(C#Cc3ccc(CN4CC5(COC5)C4)cc3)cc2)c1O (centres unmarked) [Compound 47] | 1 to 8 (≈ 2.19 to 17.5 µM) |
| O=c1[nH]cnc(CC(CO)c2ccc(C#Cc3ccc(CNC4COC4)cc3)cc2)c1O (centres unmarked) [Compound 49] | < 1 |
| CCOC(=O)C(Cc1nc[nH]c(=O)c1O)c1ccc(C#Cc2ccc(CNC3COC3)cc2)cc1 (centres unmarked) [Compound 50] | 1 to 8 (≈ 2.11 to 16.9 µM) |
| O=c1[nH]cnc(CC(CO)c2ccc(C#Cc3ccc(CN4CC(N5CCOCC5)C4)cc3)cc2)c1O (centres unmarked) [Compound 51] | 1 to 8 (≈ 2 to 16 µM) |
| O=c1[nH]cnc(CC(CO)c2ccc(C#Cc3ccc(CNCC4CCOC4)cc3)cc2)c1O (centres unmarked) [Compound 52] | 1 to 8 (≈ 2.18 to 17.4 µM) |
| O=c1[nH]cnc(CC(CO)c2ccc(C#Cc3ccc(CNC4CCOCC4)cc3)cc2)c1O (centres unmarked) [Compound 53] | 1 to 8 (≈ 2.18 to 17.4 µM) |
| N=S1(=O)CCC(NCc2ccc(C#Cc3ccc(C(CO)Cc4nc[nH]c(=O)c4O)cc3)cc2)C1 (centres unmarked) [Compound 56] | 1 to 8 (≈ 2.03 to 16.2 µM) |

| Compound | MIC [µg/mL] |
| --- | --- |
| COCCNCc1ccc(C#Cc2ccc(C(CO)Cc3nc[nH]c(=O)c3O)cc2)cc1 (centres unmarked) [Compound 57] | 1 to 8 (≈ 2.31 to 18.5 µM) |
| O=c1[nH]cnc(CC(CO)c2ccc(C#Cc3ccc(CNCC4CC4)cc3)cc2)c1O (centres unmarked) [Compound 58] | 1 to 8 (≈ 2.33 to 18.6 µM) |
| CN1CCN(C(=O)c2ccc(C#Cc3ccc(C(CO)Cc4nc[nH]c(=O)c4O)cc3)cc2)CC1 (centres unmarked) [Compound 59] | 1 to 8 (≈ 2.12 to 16.9 µM) |
| O=c1[nH]cnc(CC(CO)c2ccc(C#Cc3ccc(CNC4CC[S+]([O-])C4)cc3)cc2)c1O (centres unmarked) [Compound 60] | 1 to 8 (≈ 2.09 to 16.8 µM) |
| CNCc1ccc(C#Cc2ccc(C(CO)Cc3nc[nH]c(=O)c3O)cc2)cc1 (centres unmarked) [Compound 61] | 1 to 8 (≈ 2.57 to 20.5 µM) |
| NCc1ccc(C#Cc2ccc(C(CO)Cc3nc[nH]c(=O)c3O)cc2)cc1 (centres unmarked) [Compound 63] | 1 to 8 (≈ 2.66 to 21.3 µM) |
| NC1(Cc2ccc(C#Cc3ccc(C(CO)Cc4nc[nH]c(=O)c4O)cc3)cc2)CCOCC1 (centres unmarked) [Compound 64] | 1 to 8 (≈ 2.18 to 17.4 µM) |
| NC(Cc1nc[nH]c(=O)c1O)c1ccc(C#Cc2ccc(CN3CCOCC3)cc2)cc1 (centres unmarked) [Compound 65] | < 1 |
| COC1CN(CC(Cc2nc[nH]c(=O)c2O)c2ccc(C#Cc3ccc(CN4CCOCC4)cc3)cc2)C1 (centres unmarked) [Compound 71] | < 1 |
| CC(F)CNCC(Cc1nc[nH]c(=O)c1O)c1ccc(C#Cc2ccc(CN3CCOCC3)cc2)cc1 (centres unmarked) [Compound 74] | < 1 |
| O=c1[nH]cnc(CC(CN[C@H]2C[C@@H](F)C2)c2ccc(C#Cc3ccc(CN4CCOCC4)cc3)cc2)c1O (some centres unmarked) [Compound 75] | < 1 |
| O=c1[nH]cnc(CC(CN[C@H]2C[C@H](F)C2)c2ccc(C#Cc3ccc(CN4CCOCC4)cc3)cc2)c1O (some centres unmarked) [Compound 78] | 1 to 8 (≈ 1.94 to 15.5 µM) |
| C[C@@H](CF)NCC(Cc1nc[nH]c(=O)c1O)c1ccc(C#Cc2ccc(CN3CC(C#N)C3)cc2)cc1 (some centres unmarked) [Compound 81] | < 1 |
| C[C@H](CF)NCC(Cc1nc[nH]c(=O)c1O)c1ccc(C#Cc2ccc(CN3CC(C#N)C3)cc2)cc1 (some centres unmarked) [Compound 83] | < 1 |
| CC(CC#N)NCC(Cc1nc[nH]c(=O)c1O)c1ccc(C#Cc2ccc(CN3CCOCC3)cc2)cc1 (centres unmarked) [Compound 97] | < 1 |
| COC1CN(Cc2ccc(C#Cc3ccc(C(CNCC(C)F)Cc4nc[nH]c(=O)c4O)cc3)cc2)C1 (centres unmarked) [Compound 101] | < 1 |
| N#CC1CN(CC(Cc2nc[nH]c(=O)c2O)c2ccc(C#Cc3ccc(CN4CCOCC4)cc3)cc2)C1 (centres unmarked) [Compound 102] | < 1 |
| O=c1[nH]cnc(CC(CNCCCF)c2ccc(C#Cc3ccc(CN4CCOCC4)cc3)cc2)c1O (centres unmarked) [Compound 105] | < 1 |
| O=c1[nH]cnc(CC(CNC2CC(F)(F)C2)c2ccc(C#Cc3ccc(CN4CCOCC4)cc3)cc2)c1O (centres unmarked) [Compound 112] | < 1 |

Same assay, conditions: broth microdilution, 35° C., 18-24 h

| Compound | E. coli MIC |
| --- | --- |
| O=C(NCCF)C(Cc1nc[nH]c(=O)c1O)c1ccc(C#Cc2ccc(CN3CCOCC3)cc2)cc1 (centres unmarked) [Compound 20] | A (A: ≤1 μg/mL) |
| O=C(NCCF)C(Cc1nc[nH]c(=O)c1O)c1ccc(C#Cc2ccc(CN3CCOCC3)cc2)cc1 (centres unmarked) [Compound 21] | B (B: >1 μg/mL to ≤8.0 μg/mL) |
| O=c1[nH]cnc(CC(CN[C@H]2C[C@@H](F)C2)c2ccc(C#Cc3ccc(CN4CCOCC4)cc3)cc2)c1O (some centres unmarked) [Compound 76] | A (A: ≤1 μg/mL) |
| O=c1[nH]cnc(CC(CN[C@H]2C[C@@H](F)C2)c2ccc(C#Cc3ccc(CN4CCOCC4)cc3)cc2)c1O (some centres unmarked) [Compound 77] | B (B: >1 μg/mL to ≤8.0 μg/mL) |
| O=c1[nH]cnc(CC(CN[C@H]2C[C@H](F)C2)c2ccc(C#Cc3ccc(CN4CCOCC4)cc3)cc2)c1O (some centres unmarked) [Compound 79] | A (A: ≤1 μg/mL) |
| O=c1[nH]cnc(CC(CN[C@H]2C[C@H](F)C2)c2ccc(C#Cc3ccc(CN4CCOCC4)cc3)cc2)c1O (some centres unmarked) [Compound 80] | A (A: ≤1 μg/mL) |
| O=c1[nH]cnc(CC(CNCCCF)c2ccc(C#Cc3ccc(CN4CCOCC4)cc3)cc2)c1O (centres unmarked) [Compound 106] | B (B: >1 μg/mL to ≤8.0 μg/mL) |
| O=c1[nH]cnc(CC(CNCCCF)c2ccc(C#Cc3ccc(CN4CCOCC4)cc3)cc2)c1O (centres unmarked) [Compound 107] | A (A: ≤1 μg/mL) |
| O=c1[nH]cnc(CC(CNC2CC(F)(F)C2)c2ccc(C#Cc3ccc(CN4CCOCC4)cc3)cc2)c1O (centres unmarked) [Compound 113] | B (B: >1 μg/mL to ≤8.0 μg/mL) |
